According to ChEMBL document CHEMBL4354834 (J Med Chem, 2020):

Tests used:
[1] = Metabolic stability in cynomolgus monkey liver microsomes assessed as half life; type: ADME, Macaca fascicularis, Microsome
[2] = Metabolic stability in dog liver microsomes assessed as half life; type: ADME, Canis lupus familiaris, Microsome
[3] = Metabolic stability in human liver microsomes assessed as half life; type: ADME, Microsome
[4] = Permeability of the compound across apical side to basolateral side in human Caco2 cells; type: ADME, cell-based; settings: Caco-2, read-out: permeability
[5] = Permeability of the compound across basolateral side to apical side in human Caco2 cells; type: ADME, cell-based; settings: Caco-2, read-out: permeability
[6] = Metabolic stability in rat liver microsomes assessed as half life; type: ADME, Microsome
Coagulation factor VII = molecular target: T1, Coagulation factor VII (Homo sapiens, UniProt P08709); experiment: Inhibition of activated human coagulation factor VII using H-(D)-Ile-Pro-Arg-pNA as substrate by spectrophotometry
T1 sequence (P08709 whole entry): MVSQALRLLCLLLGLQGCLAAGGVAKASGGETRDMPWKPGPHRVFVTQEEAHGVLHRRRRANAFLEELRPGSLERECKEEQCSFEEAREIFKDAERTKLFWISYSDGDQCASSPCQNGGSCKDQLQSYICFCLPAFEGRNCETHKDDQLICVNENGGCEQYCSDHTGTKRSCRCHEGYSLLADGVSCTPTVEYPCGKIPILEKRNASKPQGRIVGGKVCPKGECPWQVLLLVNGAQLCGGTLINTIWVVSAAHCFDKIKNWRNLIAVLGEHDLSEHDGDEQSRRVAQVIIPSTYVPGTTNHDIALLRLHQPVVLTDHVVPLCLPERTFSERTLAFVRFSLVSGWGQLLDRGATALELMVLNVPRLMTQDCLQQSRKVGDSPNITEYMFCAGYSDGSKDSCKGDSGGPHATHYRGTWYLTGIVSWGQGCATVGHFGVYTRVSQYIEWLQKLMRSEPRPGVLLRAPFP

Coagulation factor IX = Coagulation factor IX (Homo sapiens, UniProt P00740); experiment: Inhibition of activated human coagulation factor IX using 7-amino-4-methylcoumarin as substrate by spectrofluorimetry
Chain of Coagulation factor IX (P00740 47-191 limits assumed): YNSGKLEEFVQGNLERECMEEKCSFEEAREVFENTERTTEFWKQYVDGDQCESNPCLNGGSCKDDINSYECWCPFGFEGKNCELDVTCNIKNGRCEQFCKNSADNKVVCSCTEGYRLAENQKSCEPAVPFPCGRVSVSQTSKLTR
Chain of Coagulation factor IX (P00740 227-461 limits assumed): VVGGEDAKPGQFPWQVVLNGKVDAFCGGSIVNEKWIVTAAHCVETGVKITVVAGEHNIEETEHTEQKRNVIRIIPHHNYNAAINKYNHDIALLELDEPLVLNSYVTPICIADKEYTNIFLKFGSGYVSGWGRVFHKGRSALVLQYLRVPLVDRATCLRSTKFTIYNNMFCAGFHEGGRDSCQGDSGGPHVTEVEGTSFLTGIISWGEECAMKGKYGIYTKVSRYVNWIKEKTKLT

Coagulation factor X = Coagulation factor X (Homo sapiens, UniProt P00742); experiment: Inhibition of activated human coagulation factor X using N-benzoyl-Ile-Glu-OH-OMe-Gly-Arg-pNA as substrate by spectrophotometry
Chain of Coagulation factor X (P00742 41-179 limits assumed): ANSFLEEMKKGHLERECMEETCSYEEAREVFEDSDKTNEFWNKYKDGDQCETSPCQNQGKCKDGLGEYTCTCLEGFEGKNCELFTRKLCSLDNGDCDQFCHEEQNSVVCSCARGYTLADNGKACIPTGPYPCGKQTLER
Chain of Coagulation factor X (P00742 235-488 limits assumed): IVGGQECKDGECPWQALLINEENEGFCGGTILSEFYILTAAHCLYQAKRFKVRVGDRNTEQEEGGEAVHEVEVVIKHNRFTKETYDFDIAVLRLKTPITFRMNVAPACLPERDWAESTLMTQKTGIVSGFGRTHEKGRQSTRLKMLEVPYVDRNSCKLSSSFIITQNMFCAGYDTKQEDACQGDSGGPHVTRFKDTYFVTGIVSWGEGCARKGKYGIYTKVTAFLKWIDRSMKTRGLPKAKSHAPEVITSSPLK

Coagulation factor XII = molecular target: T2, Coagulation factor XII (Homo sapiens, UniProt P00748); experiment: Inhibition of activated human coagulation factor XII using H-(D)-CHT-Gly-Arg-pNA as substrate by spectrophotometry
T2 sequence (P00748 whole entry): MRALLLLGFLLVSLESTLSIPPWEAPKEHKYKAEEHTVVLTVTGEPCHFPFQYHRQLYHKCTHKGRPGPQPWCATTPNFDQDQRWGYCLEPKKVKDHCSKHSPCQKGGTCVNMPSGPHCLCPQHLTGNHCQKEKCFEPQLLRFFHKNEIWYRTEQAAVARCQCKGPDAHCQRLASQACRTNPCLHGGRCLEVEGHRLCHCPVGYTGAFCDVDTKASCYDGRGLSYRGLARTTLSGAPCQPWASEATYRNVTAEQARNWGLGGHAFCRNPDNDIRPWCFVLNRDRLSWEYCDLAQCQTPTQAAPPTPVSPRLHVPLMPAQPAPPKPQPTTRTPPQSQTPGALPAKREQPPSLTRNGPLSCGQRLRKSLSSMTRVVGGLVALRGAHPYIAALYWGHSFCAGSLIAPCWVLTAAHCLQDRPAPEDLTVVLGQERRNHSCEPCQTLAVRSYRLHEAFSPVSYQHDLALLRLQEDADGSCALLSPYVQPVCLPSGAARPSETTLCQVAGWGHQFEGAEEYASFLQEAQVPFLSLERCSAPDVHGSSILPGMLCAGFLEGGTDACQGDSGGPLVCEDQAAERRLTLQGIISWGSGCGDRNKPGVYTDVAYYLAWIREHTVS

Prothrombin = Prothrombin (Homo sapiens, UniProt P00734); experiment: Inhibition of human alpha-thrombin using pyro-Glu-Pro-Arg-pNA as substrate by spectrophotometry
Trypsin = Trypsin (Homo sapiens, UniProt P07477+P07478+P35030); experiment: Inhibition of human trypsin using N-benzoyl-Ile-Glu-OH-OMe-Gly-Arg-pNA as substrate by spectrophotometry; type: protein assay
Plasma kallikrein = Plasma kallikrein (Homo sapiens, UniProt P03952); experiment: Inhibition of human kallikrein using H-(D)-Pro-Phe-Arg-pNA as substrate by spectrophotometry
Chain of Plasma kallikrein (P03952 20-390 limits assumed): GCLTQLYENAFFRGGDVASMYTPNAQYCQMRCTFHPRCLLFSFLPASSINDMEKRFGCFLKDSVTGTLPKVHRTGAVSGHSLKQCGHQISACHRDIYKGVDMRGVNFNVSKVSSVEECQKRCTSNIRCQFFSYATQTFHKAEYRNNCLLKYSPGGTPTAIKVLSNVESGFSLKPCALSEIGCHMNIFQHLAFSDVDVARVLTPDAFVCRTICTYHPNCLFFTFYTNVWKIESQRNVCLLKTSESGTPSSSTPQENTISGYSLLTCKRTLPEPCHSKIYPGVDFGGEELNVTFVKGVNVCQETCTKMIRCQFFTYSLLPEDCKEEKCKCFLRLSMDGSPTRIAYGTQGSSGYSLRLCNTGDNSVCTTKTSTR
Chain of Plasma kallikrein (P03952 391-638 limits assumed): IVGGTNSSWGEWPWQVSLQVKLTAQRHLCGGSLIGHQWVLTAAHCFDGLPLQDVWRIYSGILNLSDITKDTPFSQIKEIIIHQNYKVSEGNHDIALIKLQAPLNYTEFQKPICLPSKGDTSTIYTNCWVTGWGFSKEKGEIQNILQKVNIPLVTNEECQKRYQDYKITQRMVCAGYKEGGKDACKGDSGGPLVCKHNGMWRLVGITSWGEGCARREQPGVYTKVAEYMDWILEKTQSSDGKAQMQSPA

[7] = molecular target: Vitamin K-dependent protein C (Homo sapiens, UniProt P04070); experiment: Inhibition of activated human protein C using pyro-Glu-Pro-Arg-pNA as substrate by spectrophotometry
Chain of Vitamin K-dependent protein C (P04070 43-197 limits assumed): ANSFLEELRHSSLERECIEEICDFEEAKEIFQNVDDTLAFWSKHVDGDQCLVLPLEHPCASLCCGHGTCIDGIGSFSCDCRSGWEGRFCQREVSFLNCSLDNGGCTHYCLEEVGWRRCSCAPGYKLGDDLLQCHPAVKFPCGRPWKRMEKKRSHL
Chain of Vitamin K-dependent protein C (P04070 212-461 limits assumed): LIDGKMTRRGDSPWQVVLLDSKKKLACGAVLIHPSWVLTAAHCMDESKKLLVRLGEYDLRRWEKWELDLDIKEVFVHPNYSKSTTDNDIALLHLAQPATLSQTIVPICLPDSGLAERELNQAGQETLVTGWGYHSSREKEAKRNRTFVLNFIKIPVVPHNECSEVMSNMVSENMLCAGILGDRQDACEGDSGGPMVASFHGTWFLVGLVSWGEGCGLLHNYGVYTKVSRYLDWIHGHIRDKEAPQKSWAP

Plasminogen = Plasminogen (Homo sapiens, UniProt P00747); experiment: Inhibition of human plasmin using H-(D)-Val-Leu-Lys-pNA as substrate by spectrophotometry
Chain of Plasminogen (P00747 97-580 limits assumed): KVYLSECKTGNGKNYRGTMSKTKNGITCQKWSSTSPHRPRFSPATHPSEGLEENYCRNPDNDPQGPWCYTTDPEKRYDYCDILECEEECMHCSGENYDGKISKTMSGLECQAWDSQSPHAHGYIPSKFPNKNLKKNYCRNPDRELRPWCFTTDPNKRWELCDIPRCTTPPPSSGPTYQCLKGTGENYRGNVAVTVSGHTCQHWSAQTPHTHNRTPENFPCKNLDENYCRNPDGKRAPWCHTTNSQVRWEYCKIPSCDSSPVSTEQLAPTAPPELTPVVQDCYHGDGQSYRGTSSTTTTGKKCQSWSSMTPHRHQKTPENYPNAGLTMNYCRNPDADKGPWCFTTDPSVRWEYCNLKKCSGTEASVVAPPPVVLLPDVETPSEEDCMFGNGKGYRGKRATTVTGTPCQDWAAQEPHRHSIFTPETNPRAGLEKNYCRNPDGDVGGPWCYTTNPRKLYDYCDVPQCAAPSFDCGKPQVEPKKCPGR
Chain of Plasminogen (P00747 581-810 limits assumed): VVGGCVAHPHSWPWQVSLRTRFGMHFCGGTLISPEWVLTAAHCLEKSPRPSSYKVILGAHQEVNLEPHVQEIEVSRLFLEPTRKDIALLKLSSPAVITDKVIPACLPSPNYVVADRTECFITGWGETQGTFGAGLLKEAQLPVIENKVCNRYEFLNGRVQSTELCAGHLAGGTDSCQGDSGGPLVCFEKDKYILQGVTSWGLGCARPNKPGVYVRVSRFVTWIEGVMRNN

[8] = molecular target: Urokinase-type plasminogen activator (Homo sapiens, UniProt P00749); experiment: Inhibition of activated human urokinase using pyro-Glu-Gly-Arg-pNA as substrate by spectrophotometry

half-life [1]: 0.8 h | half-life [2]: 1.22 h | half-life [3]: 0.917 h | Papp A→B [4]: < 1.5 ×10⁻⁶ cm/s | Papp B→A [5]: 36.7 ×10⁻⁶ cm/s | half-life [6]: 1.13 h | Ki (Coagulation factor VII): > 13.3 µM | Ki (Coagulation factor IX): > 27.1 µM | Ki (Coagulation factor X): > 13.3 µM | Ki (Coagulation factor XII): 2.53 µM | Ki (Prothrombin): > 11.5 µM | Ki (Trypsin): > 10 µM | Ki (Plasma kallikrein): 0.0063 µM | Ki [7]: > 21.5 µM | Ki (Plasminogen): > 15 µM | Ki [8]: > 15.1 µM
SMILES: COC(=O)Nc1ccc2c(c1)NC(=O)[C@H](C)CCC[C@H](NC(=O)c1ncn(-c3cccc(Cl)c3F)c1C)c1cc-2ccn1.Cl.Cl
